Assays:
[1] = tested on: Kyn levels in BxPC3 cells (kynurenine generated by IDO1); experiment: Cellular Kyn assay (automated Kyn screening assay); format: cell-based; settings: Homo sapiens, BXPC-3, 48 h, IFN-γ, L-Trp and compounds 48 h, mean ± SD, read-out: IC50 (Kyn assay), reduction of kynurenine levels
[2] = tested on: global proteome of SKOV-3 cells; experiment: TMT-based global proteome profiling; format: cell-based; settings: 10 µM vs DMSO, 4 h, LC-MS/MS
Protocol: Figure 3 Comparison of IDO1 degradation efficiency for selected compounds. a) Detection of IDO1 levels using immunostaining. IFN‐γ stimulated HeLa cells were treated with the compounds for 24 h. IDO1 protein abundance was detected with IDO1 antibody. Data are mean values ± SD, n = 3. b) IDO1 protein levels in BxPC3 cells upon compounds treatment were detected using immunoblotting. BxPC3 cells were treated with IFN‐γ for 24 h prior to washout, followed by addition of compounds. Representative blot and quantified band intensities are shown (mean values ± SD, n = 3). See Figure S11a S12a for the uncropped blots. c) Key functions of hit compounds that influence degradation efficiency. d) Heatmap for IDO degradation efficiency. IDO1 levels were monitored as described in (c). See Table S1 for mean values and Figure S11b for the uncropped blots. e)–g) Dose dependent degradation of IDO1 protein in BxPC3 cells treated with iDeg‐7–9 and detected as described in (c). Representative data of n = 3 except for iDeg‐9 (n = 4). See Figure S12 S13 for the uncropped blots. h) Quantification of IDO1 protein levels from e‐g (mean values ± SD, n = 3 except for iDeg‐9 (n = 4). i) Tabulated inhibition and degradation ability of iDeg‐6–9. ND: not detected. j) Volcano plot of iDeg‐6‐induced changes on the global proteome. SKOV‐3 cells were treated with 10 µM iDeg‐6 or DMSO for 4 h followed by protein extraction, tryptic digest and LC‐MS/MS analysis (n = 4). Plot generated using UMSAP (T 0 = 0.5, S 0 = 0.5).
Cells were collected after trypsinization. The collected cell suspension was centrifugated and washed twice by cold PBS before lysate preparation by means of four freeze-thaw cycles in PBS containing 0.4% NP-40 alternative with protease (Roche, #5892970001) and phosphatase inhibitors (Roche, #4906845001). Protein concentration was determined by DC protein assay (BIO-RAD, #5000116) and 200 μg of protein lysates were subjected to the sample preparation and MS analysis. Protein lysates were dissolved in equal volume of 100 mM triethylammonium bicarbonate (TEAB) buffer supplemented with 7.5 µL of a 200 mM Tris(2-carboxyethyl) phosphine (TCEP) followed by an incubation step at 55 °C for 1 h. Afterwards, 7.5 µL of 375 mM iodoacetamide were added and samples were incubated for another 30 min at room temperature in the dark prior to acetone-based protein precipitation (pre-incubation at -20 °C overnight). On the next day, samples were centrifuged at 8,000 x g and 4 °C, the supernatant was aspired and protein pellets were dried at room temperature. Pellets were dissolved in digestion buffer (trypsin: protein ratio-1:50 (w/w)), in which trypsin was pre-dissolved in 10 mM HCl, and then diluted in 100 mM TEAB buffer to a final concentration of 0.4 µg/µL trypsin in 10 mM HCl, then the sample was incubated with shaking overnight at 37 °C. On the next day, samples were labelled with TMT10plex reagents (Thermo Scientific, WL320956) following the instruction of the TMT10plex Mass Tag Labeling Kit. Namely, 20 µL of the TMTpro Label reagent was added to each 100 µL sample (100 µg protein) followed by incubation for 2 h at room temperature while shaking. Afterwards, 5 µL of 5% hydroxylamine was added into each sample, and the samples were incubated for 15 min to quench the reaction. Equal amounts of each sample were combined in a new tube. The pooled samples were dried in a SpeedVac at 30 °C until the liquid evaporated completely.
All solvents used during MS measurements were LC-MS grade. The TMTpro labeled peptides were cleaned up and fractionated using a reversed-phase fractionation spin column (Thermo Fisher Scientific ^#84868) following the instructions of the Pierce™ High pH Reversed-Phase Peptide Fractionation kit. Briefly, the combined labeled samples (40 µg) were fully dissolved in 300 μL of 0.1% TFA and loaded onto an activated spin column, followed by centrifugation at 3000 g for 2 minutes. […]

With `C#Cc1ccc(NC(=O)OC[C@]23CN(S(=O)(=O)c4ccc(C(C)(C)C)cc4C)C[C@H]2C[C@H]2C[C@@H]3C2(C)C)cc1` [98 (iDeg-6), ((3aS,4R,6R,7aS)-2-((4-(tert-butyl)-2-methylphenyl)sulfonyl)-5,5-dimethyloctahydro-3aH-4,6-methanoisoindol-3a-yl)methyl (4-ethynylphenyl)carbamate] the IC50 [1] was 14 ± 3 nM, the “Difference in protein level: ATP6V0D1” value [2] was 0.47 and the “Difference in protein level: COX6C” value [2] was 0.79. The “Difference in protein level: COX7A2” value [2] was 0.74, the “Difference in protein level: COX7C” value [2] was 0.6 and the “Difference in protein level: ERLIN2” value [2] was 0.69. For the same molecule, the “Difference in protein level: IDO1” value [2] was -0.53, the “Difference in protein level: MT-CO2” value [2] was 0.44 and the “Difference in protein level: MT-ND2” value [2] was 0.52. For the same molecule, the “Difference in protein level: NDUFA3” value [2] was 0.44, the “Difference in protein level: NDUFA9” value [2] was 0.58 and the “Difference in protein level: NDUFB3” value [2] was 0.53. The “Difference in protein level: NDUFB11” value [2] was 0.51, the “Difference in protein level: NDUFC2” value [2] was 0.57 and the “Difference in protein level: NDUFS5” value [2] was 0.51. For the same molecule, the “Difference in protein level: PHB” value [2] was 0.45, the “Difference in protein level: PHB2” value [2] was 0.54 and the “Difference in protein level: TCIRG1” value [2] was 0.37. For the same molecule, the “Difference in protein level: TOMM5” value [2] was 0.56, the “Difference in protein level: TOMM22” value [2] was 0.6 and the “Difference in protein level: TOMM40” value [2] was 0.45. The “Difference in protein level: UQCRB” value [2] was 0.52 and the “Difference in protein level: VDAC3” value [2] was 0.52.

— paper PMC12811658, “Design, Synthesis, and Structural Evolution of Pseudo‐Natural Product IDO1 Inhibitors and Degraders” (Angewandte Chemie (International Ed. in English), 2025)
